Reference: patent publication US20230210113A1, “FUNGICIDAL COMPOSITIONS” (SYNGENTA CROP PROTECTION AG, priority 2020, published 2023)

How the values were obtained:
Botrytis cinerea = assay: Liquid culture test in well plates, Botrytis cinerea (gray mould), growth inhibition; format: cell-based; conditions: 72 hours, 24° C.
Procedure: (§1) Mycelia fragments or conidia suspensions of a fungus, prepared either freshly from liquid cultures of the fungus or from cryogenic storage, are directly mixed into nutrient broth. DMSO solutions of the test compound (max. 10 mg/mL) is diluted with 0.025% Tween20 by factor 50 and 10 µL of this solution is pipetted into a microtiter plate (96-well format). […] The test plates are incubated in the dark at 24° C. and 96% relative humidity (rh). The inhibition of fungal growth is determined photometrically and visually after 3 - 7 days, depending on the pathosystem, and percent antifungal activity relative to the untreated check is calculated.
Conidia of the fungus from cryogenic storage were directly mixed into nutrient broth (PDB potato dextrose broth). After placing a DMSO solution of the test compositions into a microtiter plate (96-well format), the nutrient broth containing the fungal spores was added.

Alternaria solani = assay: Liquid culture test in well plates, Alternaria solani (early blight of tomato/potato), growth inhibition; format: cell-based; conditions: 48 hours, 24° C.
Procedure: as §1
Conidia of the fungus from cryogenic storage were directly mixed into nutrient broth (PDB potato dextrose broth). After placing a DMSO solution of the test compositions into a microtiter plate (96-well format) the nutrient broth containing the fungal spores was added.

Row | Molecule | inhibition at 0.25 ppm (Botrytis cinerea; Botrytis cinerea, Folpet 0.25 ppm alone, read-out: (B) inhibition (%)) [%] | inhibition at 0.5 ppm (Botrytis cinerea; Botrytis cinerea, Folpet 0.50 ppm alone, read-out: (B) inhibition (%)) [%] | inhibition at 1 ppm (Botrytis cinerea; Botrytis cinerea, Folpet 1.00 ppm alone, read-out: (B) inhibition (%)) [%] | inhibition at 0.25 ppm (Alternaria solani; Alternaria solani, Folpet 0.25 ppm alone, read-out: (B) inhibition (%)) [%] | (A) inhibition (%) (Botrytis cinerea; Aureobasidin A 0.0012 ppm alone) | (A) inhibition (%) (Botrytis cinerea; Aureobasidin A 0.0025 ppm alone) | (A) inhibition (%) (Botrytis cinerea; Aureobasidin A 0.0050 ppm alone) | (A) inhibition (%) (Botrytis cinerea; Aureobasidin A 0.0100 ppm alone) | (A) inhibition (%) (Botrytis cinerea; Aureobasidin A 0.0200 ppm alone) | (A) inhibition (%) (Alternaria solani; Aureobasidin A 0.02 ppm alone)
1 | O=C1c2ccccc2C(=O)N1SC(Cl)(Cl)Cl [Folpet, folpet, reference compound] | 21 | 44 | 78 | 3 |  |  |  |  |  | 
2 | Aureobasidin A |  |  |  |  | 6 | 6 | 4 | 34 | 41 | 24
